One test concerns SK-BR3. Kind of test: Inhibition of cancer cell growth as measured by cell number, SK-BR3. The test is classed as cell-based. The following applies: Homo sapiens, SK-BR-3, 48 h, SK-BR3, 48 hours exposure. As for the experimental part:
(§1) Inhibition of Cancer Cell Growth as Measured by Cell Number […] […] After 48 hours exposure to test compounds, cells were fixed with trichloroacetic acid, and stained with Sulforhodamine B. After washing with trichloroacetic acid, bound dye was solubilized in 10 mM Tris base and optical density was determined using plate reader. Under conditions of the assay the optical density is proportional to the number of cells in the well. […] The test procedure is described in details by Philip Skehan et. al, J.Natl. Canc. Inst., 82, 1107-1112 (1990). […] Information about some of the cell lines used in these test procedures is available from the American Type Tissue Collection: Cell Lines and Hybridomas, 1994 Reference Guide, 8th Edition.

For another test, the system named is A431. Kind of test: Inhibition of cancer cell growth as measured by cell number, A431. The following applies: Homo sapiens, A-431, 48 h, A431, 48 hours exposure. The test is classed as cell-based. As for the experimental part: as §1
The test system of another test is 3T3. Put plainly: Inhibition of cancer cell growth as measured by cell number, 3T3. The following applies: Mus musculus, NIH3T3; 3T3, 48 hours exposure. The test is classed as cell-based. On the procedure: as §1
Test [1] deals with T1, Kinase insert Domain containing Receptor (KDR) (Homo sapiens, UniProt P35968).
T1 construct: KDR; the Catalytic Domain of the VEGF Receptor
Put plainly: Inhibition of Kinase insert Domain containing Receptor (KDR; the catalytic domain of the VEGF receptor). The test is classed as biochemical. The following applies: substrate E:Y 4:1, pH 7.2.
From the text: Inhibition of Kinase Insert Domain Containing Receptor (KDR; the Catalytic Domain of the VEGF Receptor)
In this standard pharmacological test procedure, KDR protein is mixed, in the presence or absence of a inhibitor compound, with a substrate peptide to be phosphorylated (a copolymer of glutamic acid and tyrosine, E:Y: 4:1) and other cofactors such as Mg^++ and sodium vanadate (a protein tyrosine phosphatase inhibitor) in an appropriate buffer to maintain pH (7.2). ATP and a radioactive tracer (either P^32 -or P^33 -labeled ATP) is then add to initiate phosphorylation. After incubation, the radioactive phosphate associated with the acid-insoluble fraction of the assay mixture is then quantified as reflection of substrate phosphorylation.

For test [2], the target named is Mitogen Activated Protein Kinase (Mek-Erk). Put plainly: Mitogen Activated Protein Kinase (MAPK) assay, coupled Mek-Erk. The test is classed as biochemical, human. The following applies: MBP or Myc peptide substrate, pH 7.4. On the procedure: Mitogen Activated Protein Kinase (MAPK) Assay
To evaluate inhibitors of the MAP (mitogen activated protein) kinase a two component coupled standard pharmacological test procedure, which measures phosphorylation of a serine/threonine residue in an appropriate sequence in the substrate in the presence and absence of a putative inhibitor, was used. Recombinant human MEK 1 (MAPKK) was first used to activate recombinant human ERK2 (MAPK) and the activated MAPK (ERK) was incubated with substrate (MBP peptide or MYC peptide) in the presence of ATP, Mg^+2 and radiolabeled ^33 P ATP. The phosphorylated peptide was captured on a P 81 phosphocellulose filter (paper filter or embedded in microtiter plate) washed and counted by scintillation methods.
The peptide substrates used in the assay are MBP, peptide substrate ([…]), or synthetic Myc substrate, ([…]·5 TFA. The recombinant enzymes used were prepared as GST fusion proteins of human ERK 2 and human MEK 1. Inhibitor samples were prepared as 10×stocks in 10% DMSO and an appropriate aliquot was used to deliver either 10 ug/ml for a single point screening dose or 100, 10, 1, and 0.1 uM final concentration for a dose response curve. Final DMSO concentrations were less than or equal to 1%.
The reaction was run as follows in 50 mM Tris kinase buffer, pH 7.4 in a reaction volume of 50 ul. The appropriate volume of kinase buffer and inhibitor sample was added to the tube. Appropriate dilution of enzyme was delivered to give 2-5 ug recombinant MAPK (Erk ) per tube. The inhibitor was incubated with MAPK (Erk) for 30 min at 0 deg. C. Recombinant Mek (MAPKK) (0.5-2.5 ug) or fully activated Mek (0.05-0.1 units) was added to activate the Erk and incubated for 30 min at 30° C. Then substrate and gamma ^33 P ATP was were added to give a final concentration of 0.5-1 mM MBPP or 250-500 uM Myc; 0.2-0.5 uCi gamma P 33 ATP/tube; 50 μM ATP final concentration. Samples were incubated at 30° C. for 30 minutes and the reaction was stopped by adding 25 μl of ice cold 10% TCA. After samples were chilled on ice for 30 min, 20 μl of sample was transferred onto P 81 phosphocellulose filter paper or appropriate MTP with embedded P 81 filter. Filter papers or MTP were washed 2 times with a large volume of 1% acetic acid, then 2 times with water. The filters or MTP were briefly air dried before addition of scintillant and samples were counted in the appropriate scintillation counter set up for reading ^33 P isotope. Samples included a positive control (activated enzyme plus substrate); a no enzyme control; a no substrate control; samples with different concentrations of putative inhibitor; and samples with reference inhibitors (other active compounds or non-specific inhibitors such as staurosporine or K252 B).
The raw data was captured as cpm. Sample replicates were averaged and corrected for background count. Mean cpm data was tabulated by group and % inhibition by a test compound was calculated as (corrected cpm control-corrected. cpm sample/control)×100=% inhibition. […] The results obtained for representative compounds of this invention are listed in TABLE 2 where there may be separate entries for the same compound; this is an indication that the compound was evaluated more than one time.

A further test has as its system SW620. Put plainly: Inhibition of cancer cell growth as measured by cell number, SW620. The test is classed as cell-based. The following applies: Homo sapiens, SW-620, 48 h, SW620, 48 hours exposure. On the procedure:
as §1

The next test deals with 3T3/c-erbb2. Put plainly: Inhibition of cancer cell growth as measured by cell number, 3T3/c-erbb2. The test is classed as cell-based. The following applies: 3T3/c-erbb2, 48 hours exposure. As for the experimental part:
as §1

For another test, the system named is MDA-MB-435. Kind of test: Inhibition of cancer cell growth as measured by cell number, MDA-MB-435. The following applies: Homo sapiens, MDA-MB-435, 48 h, MDA-MB-435, 48 hours exposure. The test is classed as cell-based. On the procedure: as §1
The target in test [3] is Epithelial Cell Kinase (ECK) (Homo sapiens, UniProt P29317). Kind of test: Inhibition of Epithelial Cell Kinase (ECK). The test is classed as biochemical. The following applies: biotinylated peptide substrate, pH 7.2.
Method: In this standard pharmacological test procedure, a biotinylated peptide substrate is first immobilized on neutravidin-coated microtiter plates. The test drug, the Epithelial Cell Kinase (ECK), Mg^++, sodium vanadate (a protein tyrosine phosphatase inhibitor), and an appropriate buffer to maintain pH (7.2) are then added to the immobilized substrate-containing microtiter wells. ATP is then added to initiate phosphorylation. After incubation, the assay plates are washed with a suitable buffer leaving behind phosphorylated peptide which is exposed to horse radish peroxidase (HRP)-conjugated anti-phosphotyrosine monoclonal antibody. The antibody-treated plates are washed again and the HRP activity in individual wells is quantified as a reflection of degree of substrate phosphorylation.
For test [4], the system named is human colon carcinoma SW620. The following applies: 3 mg/kg/dose IP days 1-20, Day 7.
Method: In Vivo Inhibition of the Growth of Human Colon Carcinoma SW620
Human colon carcinoma SW620 cells (American Type Culture Collection, Rockville, Md. #CCL-227) were grown in vitro as described above. BALB/c nu/nu female mice (Charles River, Wilmington, Mass.) were used in this in vivo standard pharmacological test procedure. A unit of 7×10^6 cells were injected SC into mice. When tumors attained a mass of between 80 and 120 mg, the mice were randomized into treatment groups (day zero). Mice were treated IP once a day on days 1 through 20 post staging with doses of either 30, 10, 3 or 1 mg/kg/dose of the compound to be evaluated in 0.2% Klucel. Control animals received vehicle only. Tumor mass was determined every 7 days [(length×width^2)/2] for 28 days post staging. Relative tumor growth (Mean tumor mass on days 7, 14, 21, and 28 divided by the mean tumor mass on day zero) is determined for each treatment group. Statistical analysis (Student-t-test) of log relative tumor growth compares treated verses control group. A p-value (p≤0.05) indicates a statistically significant reduction in relative tumor growth of treated group compared to the vehicle control.

Values after ≈ are worked out from the molar mass of the structure shown. Values joined by “and” are separate entries in the source; they are usually repeats but may differ in a detail not shown here. Equal entries are not always repeated. Some results are limits rather than exact numbers.

Chain of Epithelial Cell Kinase (ECK) (P29317 24-976): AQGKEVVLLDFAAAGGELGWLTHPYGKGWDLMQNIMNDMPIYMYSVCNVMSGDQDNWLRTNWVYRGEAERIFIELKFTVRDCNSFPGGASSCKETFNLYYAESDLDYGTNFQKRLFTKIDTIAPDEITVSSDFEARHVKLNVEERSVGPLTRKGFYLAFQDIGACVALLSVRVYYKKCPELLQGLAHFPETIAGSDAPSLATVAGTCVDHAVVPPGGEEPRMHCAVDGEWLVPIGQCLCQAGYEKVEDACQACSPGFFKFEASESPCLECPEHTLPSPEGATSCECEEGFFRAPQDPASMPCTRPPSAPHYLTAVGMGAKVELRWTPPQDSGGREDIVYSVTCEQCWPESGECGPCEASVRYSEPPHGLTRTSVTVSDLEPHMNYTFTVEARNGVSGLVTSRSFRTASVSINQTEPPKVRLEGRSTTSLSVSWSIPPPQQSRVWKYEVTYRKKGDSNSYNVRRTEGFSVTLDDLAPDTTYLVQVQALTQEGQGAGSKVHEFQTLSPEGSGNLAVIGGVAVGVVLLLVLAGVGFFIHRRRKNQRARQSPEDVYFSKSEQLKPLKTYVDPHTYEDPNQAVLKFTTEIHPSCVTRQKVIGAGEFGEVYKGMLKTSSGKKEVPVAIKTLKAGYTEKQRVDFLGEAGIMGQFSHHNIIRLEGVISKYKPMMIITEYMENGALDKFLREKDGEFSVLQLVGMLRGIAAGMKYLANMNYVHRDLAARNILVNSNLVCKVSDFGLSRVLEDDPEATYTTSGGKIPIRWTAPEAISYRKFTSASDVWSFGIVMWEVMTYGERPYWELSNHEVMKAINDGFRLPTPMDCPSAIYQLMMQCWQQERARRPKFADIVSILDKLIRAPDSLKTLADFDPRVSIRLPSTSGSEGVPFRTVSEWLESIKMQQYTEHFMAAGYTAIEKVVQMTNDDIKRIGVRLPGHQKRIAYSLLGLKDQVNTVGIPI
T1 sequence (P35968 834-1162 limits assumed): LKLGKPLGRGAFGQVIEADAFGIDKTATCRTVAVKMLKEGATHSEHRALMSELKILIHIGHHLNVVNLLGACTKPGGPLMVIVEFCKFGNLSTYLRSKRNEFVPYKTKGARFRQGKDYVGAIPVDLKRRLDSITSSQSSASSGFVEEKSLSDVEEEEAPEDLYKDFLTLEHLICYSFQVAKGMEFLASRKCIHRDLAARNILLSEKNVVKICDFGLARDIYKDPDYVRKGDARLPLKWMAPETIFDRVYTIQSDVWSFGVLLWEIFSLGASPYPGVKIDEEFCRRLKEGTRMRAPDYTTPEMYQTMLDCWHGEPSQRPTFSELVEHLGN

For orientation: IC50 means the concentration that gives 50% inhibition. Read a high IC50 as lower potency. For the compound `CCOc1cc2ncc(C#N)c(Nc3ccc4c(c3)CCC4=O)c2cc1OCC` [Example 110, 6,7-Diethoxy-4-(1-oxo-indan-5-ylamino)-quinoline-3-carbonitrile], the IC50 in the test with SK-BR3 is 0.0281 µg/mL (≈ 0.0725 µM); with A431, 0.0244 µg/mL (≈ 0.063 µM); in the test with 3T3, 0.0923 µg/mL (≈ 0.238 µM); in test [1], above 77.4 µM; in [2], > 100 µM and 50 µM; with SW620 it was 0.0181 µg/mL (≈ 0.0467 µM). Moreover, the half-maximal inhibitory concentration (IC50) in the test on 3T3/c-erbb2 was 0.0311 µg/mL (≈ 0.0803 µM); in the test on MDA-MB-435, 0.028 µg/mL (≈ 0.0723 µM); in test [3], 0.155 µM and 0.036 µM.
The compound `CCOc1cc2ncc(C#N)c(Nc3ccc4c(c3)CCC4)c2cc1OCC` [Example 108, 6,7-Diethoxy-4-(indan-5-ylamino)-quinoline-3-carbonitrile] gave an IC50 in the test on 3T3/c-erbb2 of 0.198 µg/mL (≈ 0.53 µM).
In the case of `CCOc1cc2ncc(C#N)c(Nc3ccc4c(c3)OCCO4)c2cc1OCC` [Example 105, 4-(2,3-Dihydro-benzo[1,4]dioxin-6-ylamino)-6,7-diethoxy-quinoline-3-carbonitrile], the concentration for half-maximal inhibition (IC50) is 0.281 µg/mL (≈ 0.718 µM) in the test on SK-BR3; 0.27 µg/mL (≈ 0.69 µM) in the test on A431; 0.853 µg/mL (≈ 2.18 µM) in the test with 3T3; 76.6 µM in test [1]; 0.411 µg/mL (≈ 1.05 µM) with SW620; 0.375 µg/mL (≈ 0.958 µM) with 3T3/c-erbb2. Moreover, the IC50 was 0.235 µg/mL (≈ 0.6 µM) in the test with MDA-MB-435 and above 51.1 µM in test [3].
With `CCOc1cc2ncc(C#N)c(Nc3ccc4cn[nH]c4c3)c2cc1OCC` [Example 99, 6,7-Diethoxy-4-(1H-indazol-6-ylamino)-quinoline-3-carbonitrile], in [4], the “Relative Tumor Growth Day 7” value turned out to be 3.80.
